Reference: patent publication US7045339B2, “Electron donors for chlorinated solvent source area bioremediation” (SRP Technologies, Inc., priority 2002, dated 2006)

What was measured:
Format in all cases: physicochemical
[1] = Interfacial tension between electron donor solutions and nonaqueous phase TCE (pendant drop method)
Excerpt: (§1) Based on the field results presented in Example 1, laboratory studies were preformed to confirm that the enhanced bioavailability of TCE observed in the field was due to co-solvent or surfactant behavior resulting from the use of high concentrations of sodium lactate. Two fundamental properties used to screen the co-solvent or surfactant properties of a solution are surface tension and interfacial tension. Surface tension measures the force per unit length along the interface between a liquid and air due to its tension. When a co-solvent or surfactant is present in an aqueous liquid at increasing concentrations, the surface tension of that liquid decreases. Interfacial tension is similar to surface tension except that it measures the force per unit length along the interface between two liquid phases arising from the surface free energy. The higher the interfacial tension between two liquids, the less likely one is to dissolve into the other, and the more difficult it is for one to be transported within the other. Thus, perhaps the most significant property of co-solvents and surfactants in the context of chlorinated solvent remediation is that they decrease the interfacial tension between the aqueous phase (groundwater) and the organic nonaqueous phase so that the solubility (or mobility for order-of-magnitude decreases) of the nonaqueous phase is enhanced.
The laboratory study performed to confirm the co-solvent properties of the high concentration electron donor solution measured the surface tension of electron donor solutions at various concentrations. Next, interfacial tensions between the same electron donor solutions and nonaqueous phase TCE were measured. Two types of electron donor solutions were used. The first was different concentrations of sodium lactate, the electron donor used in Example 1. The second was various mixtures of sodium lactate and ethyl lactate. Ethyl lactate was chosen because it is a lactate-based compound that is used in some industries as a solvent. Thus it was believed ethyl lactate might further enhance the co-solvent behavior observed, while still acting as a suitable electron donor for bioremediation. It is believed that mixtures of sodium lactate and ethyl lactate have never before been used for bioremediation. Surface and interfacial tension measurements were made using the pendant drop method (M. J. Rosen, ed., Structure/Performance Relationships in Surfactants, American Chemical Society, Washington D.C. 329 (1984); R. D. Bagnall & P. A. Arundel, The Profile Area of Pendant Drops, 82 J. Phys. Chem. 898 (1978)) coupled with real-time video imaging (M. D. Herd et al., Interfacial Tensions of Microbial Surfactants Determined by Real-Time Video Imaging of Pendant Drops, Proceedings paper number SPE/DOE 24206 513–519, SPE/DOE Eighth Symposium on Enhanced Oil Recovery, Tulsa, Okla. (1992)).
The data points in the figure represent the mean interfacial tension measurement based on at least eight independent measurements. The error bars show one standard deviation. It can be seen that as electron donor concentration increases, interfacial tension generally decreases. While sodium lactate had dramatic effects in the field (see FIG. 7), it appears that the other electron donor solutions tested might increase bioavailability to an even greater extent. […]

[2] = Surface tension of electron donor solutions (pendant drop method); details: FIG. 5; for Change in surface tension: 0% ethyl lactate
Excerpt: as §1, with “Thus, perhaps the most significant property of co-solvents and surfactants in the context of chlorinated solvent remediation is that they decrease the interfacial tension between the aqueous phase (groundwater) and the organic nonaqueous phase so that the solubility (or mobility for order-of-magnitude decreases) of the nonaqueous phase is enhanced.” left out
The laboratory study performed to confirm the co-solvent properties of the high concentration electron donor solution measured the surface tension of electron donor solutions at various concentrations. Next, interfacial tensions between the same electron donor solutions and nonaqueous phase TCE were measured. […] Surface and interfacial tension measurements were made using the pendant drop method (M. J. Rosen, ed., Structure/Performance Relationships in Surfactants, American Chemical Society, Washington D.C. 329 (1984); R. D. Bagnall & P. A. Arundel, The Profile Area of Pendant Drops, 82 J. Phys. Chem. 898 (1978)) coupled with real-time video imaging (M. D. Herd et al., Interfacial Tensions of Microbial Surfactants Determined by Real-Time Video Imaging of Pendant Drops, Proceedings paper number SPE/DOE 24206 513–519, SPE/DOE Eighth Symposium on Enhanced Oil Recovery, Tulsa, Okla. (1992)).

[3] = Emulsion formation of electron donor in water; details: very little mixing, unpublished data
Excerpt: Oleyl lactyllic acid may be just such an electron donor (confidential proprietary information). It is essentially a combination of vegetable oil and lactic acid that was developed in the food processing industry a few decades ago as an emulsifier. […] Although it has an appearance and viscosity of vegetable oil, its nature as an emulsifier causes it to react very differently with water than pure vegetable oil. When vegetable oil is used in the field as electron donor, an emulsifier such as lecithin must be added to inject it into groundwater (25). The mixture is then mixed to achieve an emulsion of a few tenths of a percent to a few percent oil. The droplet size of the emulsion may be a critical factor in its transportability (26). In order to achieve small, easily transported droplets in the emulsion, intensive mixing is required. […] This observation is consistent with its intended use in food processing. […] While this may be the most promising example on the surface, other potential electron donors will be evaluated under this proposal.

Compound: CCOC(=O)C(C)O (stereo not drawn) [ethyl lactate]
- Tension compared with 30% sodium lactate solution with no ethyl lactate ([1]; 10% ethyl lactate mixture with sodium lactate): lower surface tensions than the 30% sodium lactate solution
- Dependence of interfacial tension on sodium lactate concentration ([1]; ethyl lactate / sodium lactate mixtures, FIG. 6): relatively insensitive to sodium lactate concentration
- Effect on the solution's surface tension ([2]; 1% and 10% ethyl lactate added to sodium lactate solutions): pronounced effect

Compound: CC(O)C(=O)[O-].[Na+] (stereo not drawn) [sodium lactate]
- Decrease of interfacial tension between nonaqueous TCE and the electron donor solution ([1]; high concentrations of sodium lactate): ≤ 47%
- Interfacial tension as percent of the value at 0.1% sodium lactate ([1]; sodium lactate 30%, 0% ethyl lactate, FIG. 6): 47%
- Decrease of interfacial tension ([1]; sodium lactate increased from 0.1 to 3%, 0% ethyl lactate, FIG. 6): about 26%
- Change in surface tension ([2]; sodium lactate 0.01 to 7%): almost no change
- Change in surface tension ([2]; sodium lactate 30 and 60%): dramatic decrease

Compound: oleyl lactyllic acid
- Emulsion formed in water [3]: forms a stable microemulsion
